Experimental data as given in patent US9670227B2, “Thienopyrimidine derivatives, a process for their preparation and pharmaceutical compositions containing them” (LES LABORATOIRES SERVIER, priority 2013, dated 2017).
Where two headings read alike, the source gives them in different places.

Target: Mcl-1 protein (UniProtKB primary accession number: Q07820) (Homo sapiens, UniProt Q07820)
Test: Inhibition of Mcl-1 by fluorescence polarisation, Method 1
Type: binding
Details: for IC50: read-out: IC50 (M) Mcl-1 FP
Experimental: The relative binding potency of each compound was determined via Fluorescence Polarisation (FP).
An 11 point serial dilution of each compound was prepared in DMSO and 2 μl transferred into flat bottomed, low binding, 384-well plate (final DMSO concentration 5%). 38 μl of buffer (10 mM 4-(2-hydroxyethyl)-1-piperazineethanesulfonic acid [HEPES], 150 mM NaCl, 0.05% Tween 20, pH 7.4), containing the Fluorescein labelled ligand (final concentration 1 nM) and Mcl-1 protein (final concentration 5 nM) was then added.

[1] = fluorescence polarisation test, Method 2 values are underlined in the patent (underlining not visible here)
[2] = fluorescence polarisation, Method 1, or Method 2
[3] = fluorescence polarisation test, Method 1, or Method 2 where the value is underlined (underlining not visible)

Chain of Mcl-1 protein (Q07820 whole entry): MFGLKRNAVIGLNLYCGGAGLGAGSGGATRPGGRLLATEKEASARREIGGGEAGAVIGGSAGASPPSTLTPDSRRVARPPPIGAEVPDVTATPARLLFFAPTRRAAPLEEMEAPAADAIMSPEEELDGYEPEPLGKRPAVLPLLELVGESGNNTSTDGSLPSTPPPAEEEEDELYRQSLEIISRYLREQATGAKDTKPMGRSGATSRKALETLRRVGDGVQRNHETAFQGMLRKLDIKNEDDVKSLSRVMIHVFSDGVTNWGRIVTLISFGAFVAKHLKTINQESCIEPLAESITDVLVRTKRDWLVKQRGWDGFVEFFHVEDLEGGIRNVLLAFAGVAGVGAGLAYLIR

Cc1c(-c2c(-c3ccc(F)cc3)sc3ncnc(OC(Cc4ccccc4OCc4ccnc(-c5cccnc5)n4)C(=O)O)c23)ccc(OCCN2CCN(C)CC2)c1Cl [Example 32, (2R)-2-{[(5Sa)-5-{3-chloro-2-methyl-4-[2-(4-methylpiperazin-1-yl)ethoxy]phenyl}-6-(4-fluorophenyl)thieno[2,3-d]pyrimidin-4-yl]oxy}-3-(2-{[2-(pyridin-3-yl)pyrimidin-4-yl]methoxy}phenyl)propanoic acid]
IC50 [1]: 4.8e-09 M

COc1ccccc1CC(Oc1ncnc2sc(C(=O)N(C)C)c(-c3ccc(OCCN4CCN(C)CC4)c(Cl)c3C)c12)C(=O)O [Example 574, (2R)-2-{[(5Ra)-5-{3-chloro-2-methyl-4-[2-(4-methylpiperazin-1-yl)ethoxy]phenyl}-6-(dimethylcarbamoyl)thieno[2,3-d]pyrimidin-4-yl]oxy}-3-(2-methoxyphenyl)propanoic acid]
percentage fluorescence polarisation inhibition, Mcl-1 FP (partial inhibitors, @ 10 uM test compound, 10 µM): 24.3% @ 10 uM

COCCOC(=O)[C@@H](Cc1ccccc1OCc1ccnn1C(C)(C)C)Oc1ncnc2sc(-c3cccc(F)c3F)c(-c3ccc(OCCN(C)C)c(Cl)c3C)c12 [Example 805, 2-methoxyethyl (2R)-3-{2-[(1-tert-butyl-1H-pyrazol-5-yl)methoxy]phenyl}-2-{[(5Sa)-5-{3-chloro-4-[2-(dimethylamino)ethoxy]-2-methylphenyl}-6-(2,3-difluorophenyl)thieno[2,3-d]pyrimidin-4-yl]oxy}propanoate]
percentage fluorescence polarisation inhibition (Mcl-1 FP), partial inhibitors (test compound at 10 uM, Method 1, or Method 2 where the value is underlined (underlining not visible)): 53.5% @ 10 uM

Cc1c(-c2c(-c3ccc(F)cc3)sc3ncnc(OC(Cc4ccccc4OCC4CCCO4)C(=O)O)c23)ccc(OC2CCCN(C)C2)c1Cl (single isomer, unassigned) [Example 650, (2R)-2-{[(5Sa)-5-{3-chloro-2-methyl-4-[((3R or S)-1-methylpiperidin-3-yl)oxy]phenyl}-6-(4-fluorophenyl)thieno[2,3-d]pyrimidin-4-yl]oxy}-3-{2-[(2R)-tetrahydrofuran-2-ylmethoxy]phenyl}propanoic acid]
IC50 [2]: 5.1e-08 M

COc1ccccc1CC(Oc1ncnc2sc(-c3ccco3)c(-c3ccc(OCCC4CN(C)CCO4)c(Cl)c3C)c12)C(=O)O (single isomer, unassigned) [Example 318]
IC50 [1]: 3e-08 M

Cc1c(-c2c(-c3ccc(F)cc3)sc3ncnc(OC(Cc4ccccc4OCC4CCCO4)C(=O)O)c23)ccc(OCCN2CCN(CCCCN)CC2)c1Cl [Example 645, (2R)-2-{[(5Sa)-5-(4-{2-[4-(4-aminobutyl)piperazin-1-yl]ethoxy}-3-chloro-2-methylphenyl)-6-(4-fluorophenyl)thieno[2,3-d]pyrimidin-4-yl]oxy}-3-{2-[(2R)-tetrahydrofuran-2-ylmethoxy]phenyl}propanoic acid]
IC50 [2]: 2.2e-08 M

CCc1sc2ncnc(OC(Cc3ccccc3)C(=O)O)c2c1-c1ccc(OCCCO)c(Cl)c1C [Example 405, (2R)-2-({(5Sa)-5-[3-chloro-4-(3-hydroxypropoxy)-2-methylphenyl]-6-ethylthieno[2,3-d]pyrimidin-4-yl}oxy)-3-phenylpropanoic acid]
IC50 [2]: 7.4e-09 M

Cc1oc(=O)oc1COC(=O)C(Cc1ccccc1OCc1ccnn1C(C)(C)C)Oc1ncnc2sc(-c3ccc(F)cc3)c(-c3ccc(OCCN(C)C)c(Cl)c3C)c12 [Example 820, (5-methyl-2-oxo-1,3-dioxol-4-yl)methyl (2R)-3-{2-[(1-tert-butyl-1H-pyrazol-5-yl)methoxy]phenyl}-2-{[(5Sa)-5-{3-chloro-4-[2-(dimethylamino)ethoxy]-2-methylphenyl}-6-(4-fluorophenyl)thieno[2,3-d]pyrimidin-4-yl]oxy}propanoate]
IC50 [3]: 1.29e-08 M

CCCCn1nccc1COc1ccccc1CC(Oc1ncnc2sc(-c3ccc(F)cc3)c(-c3ccc(OCCN4CCN(C)CC4)c(Cl)c3C)c12)C(=O)O [Example 83, (2R)-3-{2-[(1-butyl-1H-pyrazol-5-yl)methoxy]phenyl}-2-{[(5Sa)-5-{3-chloro-2-methyl-4-[2-(4-methylpiperazin-1-yl)ethoxy]phenyl}-6-(4-fluorophenyl)thieno[2,3-d]pyrimidin-4-yl]oxy}propanoic acid]
IC50 [1]: 5.1e-09 M

COc1ccccc1-n1ccc(COc2ccccc2CC(Oc2ncnc3sc(-c4ccc(F)cc4)c(-c4ccc(OCCN5CCN(C)CC5)c(Cl)c4C)c23)C(=O)O)n1 [Example 737, (2R)-2-{[(5Sa)-5-{3-chloro-2-methyl-4-[2-(4-methylpiperazin-1-yl)ethoxy]phenyl}-6-(4-fluorophenyl)thieno[2,3-d]pyrimidin-4-yl]oxy}-3-(2-{[1-(2-methoxyphenyl)-1H-pyrazol-3-yl]methoxy}phenyl)propanoic acid]
IC50 [2]: 1.43e-08 M

CCc1sc2ncnc(OC(Cc3ccccc3)C(=O)O)c2c1-c1ccc(OCc2ccccc2)c(Cl)c1C [Example 394, (2R)-2-({(5Sa)-5-[4-(benzyloxy)-3-chloro-2-methylphenyl]-6-ethylthieno[2,3-d]pyrimidin-4-yl}oxy)-3-phenylpropanoic acid]
IC50 [2]: 3.4e-08 M

COc1ccccc1-c1nccc(COc2ccccc2CC(Oc2ncnc3sc(-c4ccc(F)cc4)c(-c4ccc(OCCN5CCN(C)CC5)c(Cl)c4C)c23)C(=O)OC(C)OC(C)=O)n1 [Example 858, 1-(acetyloxy)ethyl (2R)-2-{[(5Sa)-5-{3-chloro-2-methyl-4-[2-(4-methylpiperazin-1-yl)ethoxy]phenyl}-6-(4-fluorophenyl)thieno[2,3-d]pyrimidin-4-yl]oxy}-3-(2-{[2-(2-methoxyphenyl)pyrimidin-4-yl]methoxy}phenyl)propanoate]
IC50 [3]: 2.11e-07 M

CCc1sc2ncnc(OC(Cc3ccccc3)C(=O)O)c2c1-c1cc2nc(C)oc2c(Cl)c1C [Example 444, (2R)-2-{[(5Sa)-5-(7-chloro-2,6-dimethyl-1,3-benzoxazol-5-yl)-6-ethylthieno[2,3-d]pyrimidin-4-yl]oxy}-3-phenylpropanoic acid]
IC50 [2]: 1.2e-08 M

Cc1c(-c2c(-c3ccc(F)cc3)sc3ncnc(OC(Cc4ccccc4OCc4ccnc(-c5ccccc5F)n4)C(=O)OCC(=O)N(C)C)c23)ccc(OCCN(C)C)c1Cl [Example 818, 2-(dimethylamino)-2-oxoethyl (2R)-2-{[(5Sa)-5-{3-chloro-4-[2-(dimethylamino)ethoxy]-2-methylphenyl}-6-(4-fluorophenyl)thieno[2,3-d]pyrimidin-4-yl]oxy}-3-(2-{[2-(2-fluorophenyl)pyrimidin-4-yl]methoxy}phenyl)propanoate]
IC50 [3]: 1.12e-06 M

Cc1c(-c2c(-c3ccco3)sc3ncnc(OC(Cc4cccc(F)c4F)C(=O)O)c23)ccc(OCCN2CCN(C)CC2)c1Cl [Example 350, (2R)-2-{[(5Sa)-5-{3-chloro-2-methyl-4-[2-(4-methylpiperazin-1-yl)ethoxy]phenyl}-6-(furan-2-yl)thieno[2,3-d]pyrimidin-4-yl]oxy}-3-(2,3-difluorophenyl)propanoic acid]
IC50 [1]: 2.8e-08 M

COc1nccc(COc2ccccc2CC(Oc2ncnc3sc(-c4ccc(F)c(OCCN(C)C)c4)c(-c4ccc(OC)c(Cl)c4C)c23)C(=O)O)n1 [Example 702, (2R)-2-{[(5Sa)-5-(3-chloro-4-methoxy-2-methylphenyl)-6-{3-[2-(dimethylamino)ethoxy]-4-fluorophenyl}thieno[2,3-d]pyrimidin-4-yl]oxy}-3-{2-[(2-methoxypyrimidin-4-yl)methoxy]phenyl}propanoic acid]
IC50 [2]: 9.4e-09 M
